Laboratory results as given in patent US20190211099A1, “METHODS AND COMPOSITIONS FOR TREATING CANCER WITH SIGLEC-9 ACTIVITY MODULATORS” (KING'S COLLEGE LONDON, priority 2016, published 2019).

Columns and labels:
[1] = test system: M-CSF macrophages differentiated with LPS and IFNγ; assay: Differentiation of monocytes into M(LPS+IFNγ) macrophages: CD86 and IL-12; type: cell-based, human; conditions: MUC1-ST added at day 1 of the culture
Protocol: Both the cell phenotype staining and neutralization studies described in the Examples were performed using the following antibodies (all anti-human): Siglec-9 (Biotechne; 191240), Siglec-9 FITC (Biotechne; 191240), Siglec-3 (Biotechne; 6C5/2), Siglec-7 (Biotechne; AF1138), Siglec-3 FITC (BD; P67.6), Siglec-7 PE (Biolegend; 6-434), Siglec-10 PE (Biolegend; 5G6), Siglec-1 (abcam; 7D2), HLA-DR FITC (Beckman Coulter; IM0463U), CD16 FITC (Biolegend; B73.1), CD14 FITC (BD 555397), CD69 PE (Beckman Coulter; IM1943), CD25 FITC (ABX228FITC), CD86 PE (Beckman Coulter; IM2729U), CD40 FITC (BD 555588), CD83 PE (Beckman Coulter; IM2218), CD163 PE (Biolegend; GHI/61), CXCR1 FITC (BD Pharmongen; 551126), CD45 PC5 (Beckman Coulter; IM2653U), CD206 PE (ebioscience; 19.2), PD-L1 PE (Biolegend; 29E.2A3), CD36 (Santa Cruz; H-300), TGFbetaRII (Bio-Techne; AF-241), IL-6Rα (Tocilizumab; Roche. A generous gift from Dr. Valerie Corrigall). […] At least 1×10^4 events were evaluated using either Epics XL, (Beckman Coulter) or FACSCalibur (BD Biosciences) flow cytometers. […]
Given that IL-6 and NO are known differentiation modulators (Oosterhoff et al. (2012) ONCOIMMUNOLOGY 1: 649-658; Bogdan (2015) TREND IMMUNOL. 36: 161-178) the effects of MUC1-ST on the differentiation of monocytes into macrophages was assessed. […]

[2] = test system: monocyte derived dendritic cells; assay: Differentiation of monocytes into dendritic cells; type: cell-based, human; conditions: MUC1-ST on day 0
Protocol: To differentiate monocytes into macrophages, CD14+ cells were plated at a concentration of 1×10^6/mL in AIM V medium (Lonza) with either 50 ng/mL recombinant human M-CSF or 50 ng/mL recombinant human GM-CSF (Bio-Techne). The cytokines were added every 3 days. The cells were incubated at 37° C., 5% CO2 for 7 days to fully differentiate, before being characterized as macrophages via phenotypic flow cytometric analysis. To differentiate monocytes into dendritic cells (moDC), CD14+ cells were plated at a concentration of 1×10^6/mL in AIM V medium with 1500 U/mL recombinant human IL-4 (Bio-Techne) and 400 U/mL human GM-CSF (Bio-Techne) for 6 days to fully differentiate, before being characterized as immature DCs via phenotypic flow cytometric analysis (Epics XL, Beckman Coulter or FACSCalibur, BD Biosciences plus WinMDI or Cellquest software). MoDCs were matured using 1 μg/mL LPS for 24 hours.
In addition, the effects of MUC1-ST on the differentiation of monocytes into dendritic cells were assessed. Briefly, monocytes were treated with MUC1-ST on day 0 and differentiated into immature dendritic cells (DCs) using IL-4 (1500 U/mL) and GM-CSF (400 U/mL) in AIM-V media for 6 days. Immature DCs were matured using 1 μg/mL LPS for 24 hours. […]

macrophages = assay: Kynurenine in supernatant of MUC1-ST treated macrophages (Ehrlich Reagent); type: cell-based, human
Protocol: Given that IDO catalyzes the rate-limiting step in the metabolism of tryptophan, the tryptophan metabolite kynurenine was detected as follows. 604, supernatant was mixed with 304, 30% trichloroacetic acid (TCA) and incubated for 30 minutes at 50° C. The supernatant was spun at 3000×g and 50 μL was harvested and mixed with 50 μL freshly prepared Ehrlich Reagent (2% p-dimethylaminobenzaldehyde in glacial acetic acid). After 10 minutes optical density (O.D.) was measured at 492 nm, and concentrations were calculated against a kynurenine standard curve. An increase in the tryptophan metabolite kynurenine was observed (FIG. 11D).

monocytes from PBMCs = assay: MUC1-ST mediated TAM formation in monocytes from PBMCs, 7 day serum-free culture; type: cell-based, human
Protocol: To further explore the role of MUC1-ST in inducing a TAM-like phenotype, monocytes from PBMCs were plated in serum-free medium, incubated with MUC1-ST or PBS, and cultured for 7 days.
Intracellular calcium flux can lead to activation of the MEK/ERK pathway (Christo et al. (2015) IMMUNOL. AND CELL BIOLOGY 93: 694-704). […] Furthermore, treatment with the MEK inhibitor PD98059 at 10 μM inhibited MUC1-ST mediated TAM formation in monocytes (FIGS. 12B, 12D-12E).

Siglec-9 = Siglec-9 (Homo sapiens, UniProt Q9Y336); assay: Phosphorylation of Siglec-9 (ELISA, phospho immunoreceptor array); type: cell-based; conditions: monocytes and macrophages; antibody cross-linked
Protocol: To determine the intracellular effects of MUC1-ST binding to Siglec-9, the ability of MUC1-ST to induce phosphorylation of the immunoreceptor tyrosine-based inhibitory motif (ITIM) of Siglec-9 thereby inducing intracellular inhibitory signals (Avril et al. (2004) J. IMMUNOL. 173: 6841-6849) was assessed. Without wishing to be bound by theory, it was hypothesized that this was likely occur as the repeated glycans found on MUC1 could be able to crosslink this lectin. To investigate the effects of MUC1-ST on Siglec-9 phosphorylation, monocytes or differentiated M-CSF macrophages were treated with MUC1-ST or cross-linked anti-Siglec-9 antibody at 4° C. for 4 hours or 30 minutes, respectively, and were then brought to 37° C. for 15 minutes, and lysed in the presence of pervanadate. Lysates were assessed for the phosphorylation of Siglec-9 using an ELISA or a 59 phospho immunoreceptor array (Bio-Techne) according to the manufacturer's instructions. For the ELISA, anti-human Siglec-9 was plated overnight (O/N) on plastic before being blocked with 1% BSA in PBS. Clarified supernatant was added and incubated for 2 hours. After incubation with 1 μg/mL biotinylated anti phospho-tyrosine, O.D. at 450 nm was measured after the addition of streptavidin-HRP and substrate.

Chain of Siglec-9 (Q9Y336 18-463): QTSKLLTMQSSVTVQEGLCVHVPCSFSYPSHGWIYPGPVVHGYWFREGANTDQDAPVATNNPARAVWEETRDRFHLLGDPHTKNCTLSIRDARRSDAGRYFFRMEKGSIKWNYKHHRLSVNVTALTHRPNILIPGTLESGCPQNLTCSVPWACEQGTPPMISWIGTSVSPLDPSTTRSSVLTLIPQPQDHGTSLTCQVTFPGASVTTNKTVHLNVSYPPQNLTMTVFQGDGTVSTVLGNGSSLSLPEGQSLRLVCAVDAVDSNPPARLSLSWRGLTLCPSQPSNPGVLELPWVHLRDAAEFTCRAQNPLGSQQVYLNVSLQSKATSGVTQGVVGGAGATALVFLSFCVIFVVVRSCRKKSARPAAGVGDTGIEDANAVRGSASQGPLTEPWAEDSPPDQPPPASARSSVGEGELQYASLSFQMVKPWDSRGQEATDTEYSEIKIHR

- phosphorylation of Siglec-9 (Siglec-9): inhibited
Substance: NeuAcα2,3Galβ1-3GalNAc linked via a Ser/Thr of MUC1 [MUC1-ST]
- levels of CD86 and IL-12 [1]: lower levels
- levels of CD86 (immature DCs) and of CD86 and CD83 (matured DCs) [2]: lower levels
- tryptophan metabolite kynurenine in supernatant (macrophages): increase
- expression of ECM component collagen type I (monocytes from PBMCs): increased expression
- percentage of live macrophages in the culture (monocytes from PBMCs; 7 days, serum-free medium): increased
- expression of TAM markers such as CD206 and PD-L1 (monocytes from PBMCs; flow cytometry): increased expression
